From patent publication US20110038940A1, “PULVERULENT COMPOSITION AND A PROCESS FOR PREPARING THE SAME” (INNOV'IA, priority 2008, published 2011)
≈ marks a conversion by molar mass, not a printed value.

Assays:
[1] = Sedimentation of dispersed composition in water measured by turbidity (back scattering laser, Turbiscan MA 1000); format: physicochemical; conditions: 10 g in 90 ml distilled water at 20° C., bottom of tube
Protocol: 10 g of the water-dispersible pulverulent composition A is dispersed in 90 ml of distilled water at 20° C. in a tube. The sedimentation rate is measured by turbidity using a back scattering laser device (Turbiscan MA 1000) along the tube. The back light is measured along the tube at different time so that evolution of the sedimentation can be followed along time. The sedimentation is measured at the bottom of the tube.

[2] = Natural sedimentation in conical graduated tube, 15% dispersion in distilled water; sediment volume and dry solids; format: physicochemical; conditions: 15% (net w/total w) in distilled water at 20° C., 10 ml
Protocol: The water-dispersible pulverulent composition A is dispersed in distilled water at 20° C. at a concentration of 15% (net w/total w) in a conical graduated sedimentation tube (total volume of the solution is 10 ml). The quantity of the sediment (in ml) is measured along time (Table 3).
The encapsulation efficiency can also be assessed by measuring the hydration of the granules of the water-dispersible pulverulent composition of the invention. This has been evaluated by measuring the dry solid content of the sediment (% dry matter) (Table 3).

[3] = Sedimentation test (stability of the dispersion): sediment size and dry content after 24 hours; format: physicochemical; conditions: 1.5 g in 8.5 ml demineralised water, 2 min vortex; for Dry content of the sediment: sediment after 24 hours
Protocol: The stability is measured by the sedimentation test as follow: • 10 ml of solution is prepared using 8.5 ml of demineralised water and 1.5 g of the pulverulent composition A or B in special sedimentation tubes graduated from 0.1 ml up to 10 ml; • complete dispersion is assumed by a 2 min vortex mixing; • sedimentation is controlled at defined times to evaluate the amount of sediment; • quality of the dispersion is evaluated by measuring: • the dispersion of the solids all over the aqueous solution by measuring the height of the sediments of the hydrated particles. For the same amount of pulverulent composition, the higher the sediments, the more dispersed the particles in the aqueous solution • the dry content of the sediment after 24 hours.

[4] = water; cited from earlier work

% Back light after 2 min dispersion ([1]; 2 min): 2%
% Back light after 6 min dispersion ([1]; 6 min): 3.1%
Sediment volume after 1 Hour dispersion ([2]; 1 hour): 0.6 mL
Dry solids content of the sediment after 24 Hour sedimentation ([2]; 24 hours): 39.3%
Sediment after 24 H ([3]; 24 h): 1.5 mL
Dry content of the sediment ([3]; listed as Riboflavin (raw material)): 39.4%
Dry content of the sediment ([3]; listed as Riboflavin (raw material) (control)): 39.4%
Dry content of the sediment ([3]; listed as Riboflavine: Raw material (control)): 39.4%
SMILES: Cc1cc2nc3c(=O)[nH]c(=O)nc-3n(C[C@H](O)[C@H](O)[C@H](O)CO)c2cc1C [Riboflavin]
solubility [4]: 70 mg/L (≈ 186 µM)
